From ChEMBL document CHEMBL1149604, “Disaccharide analogs as probes for glycosyltransferases in Mycobacterium tuberculosis” (Bioorg Med Chem, 2007)

Legend:
[1] = system: Mycolicibacterium smegmatis; assay: Activity of Mycobacterial smegmatis-galactosyltransferase after 1 hr
[2] = system: Mycolicibacterium smegmatis; assay: Activity of Mycobacterial smegmatis-arabinosyltransferase after 1 hr

CN(C)c1cccc2c(S(=O)(=O)NCCO[C@@H]3O[C@@H](C[C@H](CO)O[C@@H]4O[C@@H]([C@@H](O)CO)[C@H](O)[C@H]4O)[C@H](O)[C@H]3O)cccc12
Km [1]: 7330 µM

[N-]=[N+]=Nc1cccc2c(S(=O)(=O)NCCO[C@H]3O[C@H](CO[C@H]4O[C@H](CO)[C@@H](O)[C@@H]4O)[C@@H](O)[C@@H]3O)cccc12
Km [2]: 3070 µM

CN(C)c1cccc2c(S(=O)(=O)NCCO[C@H]3O[C@H](CO[C@H]4O[C@H](CO)[C@@H](O)[C@@H]4O)[C@@H](O)[C@@H]3O)cccc12
Km [2]: 680 µM

[N-]=[N+]=Nc1cccc2c(S(=O)(=O)NCCO[C@@H]3O[C@@H]([C@@H](O)CO[C@@H]4O[C@@H]([C@@H](O)CO)[C@H](O)[C@H]4O)[C@H](O)[C@H]3O)cccc12
Km [1]: 1980 µM

CN(C)c1cccc2c(S(=O)(=O)NCCO[C@@H]3O[C@@H]([C@@H](O)CO[C@@H]4O[C@@H]([C@@H](O)CO)[C@H](O)[C@H]4O)[C@H](O)[C@H]3O)cccc12
Km [1]: 2380 µM

[N-]=[N+]=Nc1cccc2c(S(=O)(=O)NCCO[C@@H]3O[C@@H](C[C@H](CO)OC4O[C@@H]([C@@H](O)CO)[C@H](O)[C@H]4O)[C@H](O)[C@H]3O)cccc12 (stereo partly specified)
Km [1]: 2770 µM
